From US20210341378A1, “HIGH-CONTENT IMAGING OF MICROFLUIDIC DEVICES” (priority 2019, published 2021)

Tests used:
[1] = tested on: 3D human spheroid hepatic cultures; details: fold higher than the human Liver-Chip IC50; cited from earlier work
[2] = target: T1, bile salt export pump (BSEP) (Homo sapiens, UniProt O95342); assay: CLF efflux into bile canaliculi (BSEP activity), human Liver-Chip; format: cell-based; details: 30 μM, co-treatment with CLF
T1 construct: Primary rat, dog or human hepatocytes were cultured in the upper parenchymal channel; endogenous in cells; host or cells: primary human hepatocytes co-cultured with LSECs in a microfluidic Liver-Chip
Procedure: Both a brightfield and a fluorescence image was taken from each field of view. […] CLF-labeled regions that most likely to corresponded to bile canaliculi were automatically identified based on geometric criteria and retained only if they co-localized with a bile canaliculi signal in channel 1. […] These criteria were determined empirically using a small test set of images and then applied to images for the analysis. […] The data for treated and control samples were quantified by computing the area percentage of CLF-labeled bile canaliculi within each field of view (FOV).

BSEP = BSEP protein area and gene expression, human Liver-Chip; format: cell-based; details: 30 μM
Procedure: In one embodiment, gene expression levels were analyzed using 2-step PCR. […] Relative gene expression levels were calculated using ddCt method.
The fluorescent channel images were first de-blurred with Olympus cellSens software. Using ImageJ, they were then histogram adjusted to remove background, adaptive thresholded to extract fluorescent regions (a plugin developed by Qingzong Tseng using the adaptive threshold method of the OpenCV library), and analyzed using the built-in 3D Object Counter function with an area cutoff value to remove noise.

[3] = tested on: microfluidic devices seeded with rat liver cells; assay: Albumin secretion (ELISA), rat Liver-Chip; format: cell-based; details: 168 h; dual-cell rat chips, daily administration 1-100 μM for 7 days; read-out: IC50 of decrease in albumin secretion
Excerpt: Prior to cell seeding, microfluidic devices, in this case S-I Chips (Emulate, Inc. Boston, Mass., USA), were functionalized using Emulate's proprietary protocols and reagents (ER™), including those described herein. After surface functionalization, both channels of the microfluidic device were coated with species-specific extracellular matrices (ECM). For the human bound microfluidic device, a mixture of collagen type I (Corning, Corning, N.Y., USA) and fibronectin, e.g. bovine, (Gibco) was used; for the rat bound microfluidic devices a mixture of collagen type IV, e.g. human placenta, (Sigma-Aldrich, St. Louis, Mo., USA) and fibronectin (Gibco) was used; for the dog bound microfluidic devices a mixture of collagen I (Corning), collagen type IV (Sigma-Aldrich), and fibronectin (Gibco) was used. […] For the dual-cell culture model (hepatocytes and endothelial cells), the LSECs were seeded at a concentration of 2-4 million cells/mL in the lower vascular channel. […] Albumin secretion from the upper channel was quantified using ELISA kits for human, rat, and dog models effluent samples (human and rat: Abcam; dog: Immunology Consultants Laboratory, Inc., Portland, Oreg., USA) and the assays were performed according to the protocol provided by each vendor.

[4] = tested on: microfluidic devices seeded with human liver cells; assay: Albumin secretion (ELISA), human Liver-Chip; format: cell-based
Excerpt: Prior to cell seeding, microfluidic devices, in this case S-I Chips (Emulate, Inc. Boston, Mass., USA), were functionalized using Emulate's proprietary protocols and reagents (ER™), including those described herein. After surface functionalization, both channels of the microfluidic device were coated with species-specific extracellular matrices (ECM). For the human bound microfluidic device, a mixture of collagen type I (Corning, Corning, N.Y., USA) and fibronectin, e.g. bovine, (Gibco) was used; for the rat bound microfluidic devices a mixture of collagen type IV, e.g. human placenta, (Sigma-Aldrich, St. Louis, Mo., USA) and fibronectin (Gibco) was used; for the dog bound microfluidic devices a mixture of collagen I (Corning), collagen type IV (Sigma-Aldrich), and fibronectin (Gibco) was used. […] For the dual-cell culture model (hepatocytes and endothelial cells), the LSECs were seeded at a concentration of 2-4 million cells/mL in the lower vascular channel. […] After cell seeding, the upper channel of the microfluidic device was maintained in William's E Medium (WEM) containing Glutamax (Gibco), ITS+ (Corning), dexamethasone (Sigma-Aldrich), ascorbic acid (Sigma-Aldrich), fetal bovine serum (FBS) (Sigma-Aldrich), and Penicillin/Streptomycin (Sigma-Aldrich). The vascular channel of the microfluidic device was maintained with species-specific endothelial media (Emulate, Inc.). Two days after seeding, the microfluidic devices were connected to the Human Emulation System™ (Emulate, Inc.), as described in part herein, and both of the microfluidic device channels were perfused at 30 μL/hr to provide a continuous supply of fresh media for the duration of the experiments. Albumin secretion from the upper channel was quantified using ELISA kits for human, rat, and dog models effluent samples (human and rat: Abcam; dog: Immunology Consultants Laboratory, Inc., Portland, Oreg., USA) and the assays were performed according to the protocol provided by each vendor.

stellate cells = assay: Stellate cell activation (alpha-SMA), human Liver-Chip; format: cell-based; details: daily 1, 10 and 30 μM for 7 days, quadruple-cell chip
Procedure: (§1) Microfluidic devices seeded with liver cells and static sandwich plate cultures were fixed with 4% paraformaldehyde for 15 minutes at room temperature, washed with PBS, and permeabilized (saponin 1% with 10% serum in PBS). Blocking and incubation with the primary antibodies (overnight in PBS containing 1% BSA or PBS containing 10% serum and 1% BSA) was followed by a two-hour incubation with secondary antibodies (Cell Signaling, Danvers, Mass., USA) in the same blocking buffer. Immunostaining was performed with specific primary antibodies (anti-MRP2, anti-stabilin-1, anti-BSEP, anti-α-SMA, anti-CD68; Abcam, Cambridge, Mass., USA) and images were acquired with either an Olympus fluorescence microscope (IX83) or Zeiss confocal microscope (AxiovertZ1 LSM880).
(§2) The number of CD68- or α-SMA-positive cells in the vascular channel in each group was counted in each field of view ([…]) and quantified.
The fluorescent channel (588) was first background subtracted and processed using the median filter of Image J. After processing, the signal was thresholded using adaptive thresholding function of Image J (Otsu method) to extract fluorescent regions and to measure the relative intensity of the fluorescent signal. N=4 to 6 FOVs per microfluidic device from each microfluidic device were analyzed. […]

[5] = tested on: microfluidic devices seeded with human liver cells; assay: Cytokine release (IL-6, MCP-1, IP-10) from vascular channel, human Liver-Chip; format: cell-based
Procedure: Cytokines: Release of IL-6, MCP-1, and IP-10 from the vascular channel was quantified using U-PLEX biomarker human assays (Meso Scale Diagnostics, Rockville, Md., USA) and the assays were performed according to the protocol provided by the vendor.

[6] = tested on: microfluidic devices seeded with human liver cells; assay: Lipid accumulation (Nile red / AdipoRed), human Liver-Chip; format: cell-based; details: daily 1, 10 and 30 μM for 7 days, quadruple-cell chip
Excerpt: Microfluidic devices seeded with liver cells were stained in the upper channel with 5(6)-Carboxy-2′,7′-dichlorofluorescein diacetate (CDFDA) (ThermoFisher) to visualize bile canaliculi and MRP2 activity, cholyl-lysyl-fluorescein (CLF) (Corning) to visualize bile canaliculi and BSEP activity, Nile red (ThermoFisher) or AdipoRed (Lonza) to visualize lipid droplet accumulation, Tetramethylrhodamine, methyl ester (TMRM) (ThermoFisher) to visualize active mitochondria, and CellROX® (ThermoFisher) to visualize cellular oxidative stress. Each staining solution was prepared in blank medium or compound dosing medium and added to the upper channel, incubated for 15 minutes at 37° C., and washed three times with medium. The stained microfluidic devices were imaged using a specific filter, and were de-blurred with Olympus cellSens software. Using ImageJ-Fiji, the fluorescent channel images were histogram adjusted to remove background, followed by fluorescence quantification using the Integrated Density calculation function.
The stained microfluidic devices were imaged using the TRITC filter, and were de-blurred with Olympus cellSens software. Using ImageJ-Fiji, the fluorescent channel images were histogram adjusted to remove background, followed by fluorescence quantification using the Integrated Density calculation function. N=5 FOVs per microfluidic device were analyzed for conditions: vehicle (0.1% DMSO), FIAU dosing groups, and MTX dosing groups.

[7] = some patient populations; cited from earlier work
[8] = tested on: microfluidic devices seeded with liver cells (hepatocytes and LSECs); assay: High-content confocal imaging of Liver-Chips treated with staurosporine; format: cell-based, human; details: 10 μM, six hours of exposure
Procedure: Microfluidic devices were obtained from Emulate Inc. (USA) and are illustrated in FIG. 1A. The channels of the microfluidic devices were coated with a proprietary mixture of extracellular matrix and were incubated overnight at 37° C. Primary human cryopreserved hepatocytes sourced from ThermoFisher, as one example, were seeded in the top channel at a density of 3.5×10^6 cells/mL, and were left to form an attached monolayer at 37° C. in a humidified incubator with a 95%/5% ratio of air to CO2.
Twenty-four hours after seeding, the hepatocyte monolayer was overlaid with Matrigel Matrix sourced from Corning, USA. Primary human cryopreserved liver sinusoidal endothelial cells, also known as LSECs, were seeded on the bottom channel of the microfluidic device at a density of 2 to 4×10^6 cells/mL in endothelial medium, also known as CSC medium or Base LSEC Culture Medium; CSC basal Medium plus Culture-Boost (2%), Cell Systems, and Pen/Strep (1%), Sigma. In some embodiments, endothelial cells are cultured in Complete LSEC Culture Medium, Base LSEC Culture Medium plus 10% FBS. […]
The effects of agents, such as staurosporine on cell phenotype was evaluated. […] The protocol was chosen as it was analogous to how the compound has been evaluated in vivo. […]

Kupffer cells = assay: Kupffer cell count (CD68-positive cells), human Liver-Chip; format: cell-based; details: human quadruple-cell chip
Procedure: as §1, §2

rats = assay: Repeat-dose toxicity studies in rats; format: in vivo; details: rat study of the cFMS/FLT3 inhibitor
Procedure: (§3) JNJ-1, prepared in purified water, was administered once daily for 14 days to 5 male and 5 female rats at doses of 5, 25, and 125 mg/kg. In a separate study, JNJ-1, also in purified water, was administered once daily for 4 weeks to 5 male and 5 female dogs at 0 or 40 mg/kg/day, and to 3 males and 3 female dogs at 2 or 10 mg/kg/day. Mortality, clinical observations, body weight, food consumption, clinical pathology, gross necropsy and microscopic examination of selected tissues, and toxicokinetics were evaluated. Rats or dogs were fasted overnight prior to blood collection for measurement of clinical pathology parameters (including AST and ALT) at the end of 14 days (rats) or 4 weeks (dogs) of dosing. Histology slides (hematoxylin and eosin staining and Mason's Trichrome staining) of the liver tissues were prepared and evaluated microscopically. The quantification of JNJ-1 was conducted using a qualified liquid chromatographic-triple quadrupole mass spectrometric (LC-MS/MS) procedure.
Regarding histology procedures, the liver was sampled. Briefly, 5 serial sections were prepared. One was stained with hematoxylin and eosin (H&E) kit. The 4 others were submitted to histochemical and immunohistochemical stains. Collagen was detected with the Van Gieson kit (Merck, Darmstadt, Germany), and reticulin, with the Reticulum kit (Sigma-Aldrich). […]

dogs = assay: Repeat-dose toxicity studies in dogs; format: in vivo; details: dog study of the cFMS/FLT3 inhibitor
Procedure: as §3, with “Rats or dogs were fasted overnight prior to blood collection for measurement of clinical pathology parameters (including AST and ALT) at the end of 14 days (rats) or 4 weeks (dogs) of dosing.” left out
JNJ-3 (in 20% hydroxypropyl-β-cyclodextrin) was administered once daily for 14 days to 3 male beagle dogs per group at doses of 15 and 65 mg/kg. Mortality, clinical observations, body weight, food consumption, clinical pathology, gross necropsy and microscopic examination of selected tissues, and toxicokinetics were evaluated. […] Histology slides (hematoxylin and eosin staining and Mason's Trichrome staining) of the liver tissues were prepared and evaluated microscopically. […]

[9] = tested on: microfluidic devices seeded with human liver cells; assay: APAP metabolite quantification by LC-MS, human Liver-Chip; format: in vitro ADME; details: daily 3 mM for 20 days, quadruple-cell human chip
Excerpt: After APAP exposure to microfluidic devices seeded with human liver cells, effluent metabolite levels were quantified using LC-MS analysis. […] APAP-Glucuronide (APAP-Glu), the primary metabolite of APAP, was not quantified using a standard curve. Rather, the LC-MS peak area of APAP-Glu was reported corresponding to each sample.

T1 sequence (O95342 whole entry): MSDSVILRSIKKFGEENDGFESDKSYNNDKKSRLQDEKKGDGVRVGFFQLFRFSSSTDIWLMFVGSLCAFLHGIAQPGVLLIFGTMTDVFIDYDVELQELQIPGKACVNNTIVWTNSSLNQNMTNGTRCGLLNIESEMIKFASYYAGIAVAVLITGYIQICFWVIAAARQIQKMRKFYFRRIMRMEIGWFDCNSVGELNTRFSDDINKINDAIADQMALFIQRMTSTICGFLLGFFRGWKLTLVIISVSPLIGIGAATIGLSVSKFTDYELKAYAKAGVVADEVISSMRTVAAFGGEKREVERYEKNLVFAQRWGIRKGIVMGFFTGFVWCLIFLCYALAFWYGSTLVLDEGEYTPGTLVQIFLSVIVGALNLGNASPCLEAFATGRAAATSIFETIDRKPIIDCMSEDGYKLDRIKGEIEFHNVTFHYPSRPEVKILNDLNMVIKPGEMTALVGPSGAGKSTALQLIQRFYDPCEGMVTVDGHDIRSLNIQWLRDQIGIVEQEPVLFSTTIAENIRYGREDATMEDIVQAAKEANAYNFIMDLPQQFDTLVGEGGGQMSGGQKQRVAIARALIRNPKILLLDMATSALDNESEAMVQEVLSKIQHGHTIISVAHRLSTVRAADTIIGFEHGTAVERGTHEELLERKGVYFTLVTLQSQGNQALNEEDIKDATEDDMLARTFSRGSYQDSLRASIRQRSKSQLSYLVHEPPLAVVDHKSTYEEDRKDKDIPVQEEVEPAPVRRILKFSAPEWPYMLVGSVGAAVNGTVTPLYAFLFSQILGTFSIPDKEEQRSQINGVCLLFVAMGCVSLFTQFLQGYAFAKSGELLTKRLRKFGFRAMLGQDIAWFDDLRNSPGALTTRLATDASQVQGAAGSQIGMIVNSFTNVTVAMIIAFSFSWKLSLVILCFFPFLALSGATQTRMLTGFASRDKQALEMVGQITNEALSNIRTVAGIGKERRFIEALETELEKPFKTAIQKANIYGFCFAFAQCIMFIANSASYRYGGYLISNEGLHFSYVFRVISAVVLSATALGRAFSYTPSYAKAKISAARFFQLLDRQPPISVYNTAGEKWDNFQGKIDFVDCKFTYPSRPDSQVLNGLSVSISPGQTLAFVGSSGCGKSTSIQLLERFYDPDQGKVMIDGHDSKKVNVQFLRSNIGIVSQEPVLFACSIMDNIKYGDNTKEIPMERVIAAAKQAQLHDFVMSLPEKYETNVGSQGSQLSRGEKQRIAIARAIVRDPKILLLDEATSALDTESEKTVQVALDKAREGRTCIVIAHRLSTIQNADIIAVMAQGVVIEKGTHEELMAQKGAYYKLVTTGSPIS

COc1ccccc1Oc1c(NS(=O)(=O)c2ccc(C(C)(C)C)cc2)nc(-c2ncccn2)nc1OCCO [bosentan]
IC50 in 3D human spheroid hepatic cultures relative to human chip [1]: more than 10 fold | CLF in human hepatocytes [2]: intracellular accumulation | BSEP mRNA levels (BSEP): decreases | BSEP protein levels (BSEP): decreases | IC50 [3]: > 100 µM

CN(Cc1cnc2nc(N)nc(N)c2n1)c1ccc(C(=O)N[C@@H](CCC(=O)O)C(=O)O)cc1 [MTX, Methotrexate]
albumin secretion ([4]; MTX 1, 10 and 30 μM for 7 days, quadruple-cell chip): no abnormalities | expression of α-SMA (stellate cell activation) (stellate cells): increased expression | IP-10 ([5]; MTX treatment, 1 day, vascular channel): increases | cytokines/chemokines including IP-10 ([5]; treated Liver-Chips (discussion)): release | lipid accumulation detected by Nile red [6]: microscopic evidence of lipid accumulation | maximal plasma concentrations at which liver injury occurs in humans [7]: ~1 µM

CN[C@@H]1C[C@H]2O[C@@](C)([C@@H]1OC)n1c3ccccc3c3c4c(c5c6ccccc6n2c5c31)C(=O)NC4 [Staurosporine, staurosporine]
LSECs [8]: complete loss | apoptotic marker (CC3) [8]: marked increases

CN(C)CC(=O)N1CCC(c2ccc(NC(=O)c3nc(C#N)c[nH]3)c(C3=CCCCC3)c2)CC1 [a JNJ compound]
CD68-positive cells (Kupffer cell depletion) (Kupffer cells): decreased number | interleukin 6 (IL-6) in the vascular channel ([5]; human quadruple-cell chip): dose-dependent decrease | monocyte chemoattractant protein-1 (MCP-1) in the vascular channel ([5]; human quadruple-cell chip): dose-dependent decrease | microscopic changes in the liver (rats): without any correlative microscopic changes | transaminases (rats): Dose-related elevation | microscopic changes in the liver (dogs): without any correlative microscopic changes | transaminases (dogs): Dose-related elevation

CC(=O)Nc1ccc(O)cc1 [APAP, acetaminophen]
albumin synthesis ([4]; APAP 7 days, quadruple-cell human chip): decreased | APAP glucuronide in parenchymal and vascular channels [9]: significant amounts
